Laboratory results from US8227501B2, “1,6-dihydro-2H-3-oxa-6-aza-as-indacene compounds” (Ferrer Internacional, S.A., priority 2008, dated 2012).

Legend:
[1] = target: T1, recombinant human-MT1 receptor (Homo sapiens, UniProt P48039); assay: In vitro MT1 screening, agonist activity (AequoScreen aequorin luminescence); assay type: cell-based; details: percentage of activity relative to the reference agonist at the EC100 concentration
T1 construct: expressed in transfected cells; host or cells: unnamed cell line stably overexpressing human MT1, co-expressing mitochondrial apoaequorin and Gα16
From the text: To proceed with compound screening over MT1 receptor, a cell line characterised by a stable overexpression of recombinant human-MT1 receptor was used. This line co-expresses mitochondrial apoaequorin and subunit Gα16.
Subunit Gα16 belongs to […], in which intracelular signal transduction is produced via phospholipase (PLC). Activation of PLC produces an increment of inositol-triphosphate levels and intracellular calcium levels. This increment in calcium levels is, therefore, independent and full compatible with the signal transduction of MT1 receptor.
After binding to calcium, aequorin carries out the oxidation of colenterazine to colenteramide, a luminescent reaction.
Assay protocol for agonist screening consists in an overnight incubation of cells and colenterazine, being performed by an AequoScreen™ system instrument, PerkinElmer, USA. After that this mixture was injected over a plate that contains the solution of the compounds to screen and luminescence was immediately read. Only in case of antagonism screening, after 15-30 min of the first injection the reference agonist was added in the same well, and then luminescence was measured.
Agonist activity was calculated as percentage of activity relative to the reference agonist at the EC100 concentration. Activity of antagonists was expressed as the inhibition percentage over the activity of reference agonist at its EC80, concentration.

[2] = therapeutic use in humans; cited from earlier work

T1 sequence (P48039 whole entry): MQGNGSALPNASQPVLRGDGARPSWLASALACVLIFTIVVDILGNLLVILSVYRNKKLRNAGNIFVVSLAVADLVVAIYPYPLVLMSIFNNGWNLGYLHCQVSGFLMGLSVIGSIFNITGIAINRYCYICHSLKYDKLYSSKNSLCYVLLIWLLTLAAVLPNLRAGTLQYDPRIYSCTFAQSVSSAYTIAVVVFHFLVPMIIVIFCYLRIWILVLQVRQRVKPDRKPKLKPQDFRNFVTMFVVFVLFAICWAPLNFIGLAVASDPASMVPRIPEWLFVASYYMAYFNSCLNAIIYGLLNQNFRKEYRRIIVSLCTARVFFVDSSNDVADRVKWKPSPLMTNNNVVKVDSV

Row | SMILES | Agonism percentages of MT1, 1 nM ([1]; 1 nM compound) [%] | Agonism percentages of MT1, 100 nM ([1]; 100 nM compound) [%] | half-life [2] | activation at 0.001 µM ([1]; 1 nM compound, read-out: Agonism percentages of MT1, 1 nM) [%] | activation at 0.1 µM ([1]; 100 nM compound, read-out: Agonism percentages of MT1, 100 nM) [%]
1 | COc1ccc2[nH]cc(CCNC(C)=O)c2c1 [Melatonin, reference compound] | 48.0 | 102.6 | minutes |  | 
2 | CCC(=O)NCC[C@@H]1CCc2ccc3c(c21)CCO3 [Ramelteon, N-[2-[(8S)-1,6,7,8-tetrahydro-2H-indeno[5,4-b]furan-8-yl)ethyl]propionamide, reference compound] |  |  |  | 47.4 | 118
